The data set concerns primordial-to-primary follicle transition. The experiment in a line: In vitro organ culture of mouse ovaries with compound, H&E histology and counting of primordial, primary and secondary follicles. Particulars: for effect on primordial-to-primary follicle transition / primordial follicle activation: in vitro cultured mouse ovaries, concentration not given. As for the experimental part:
Ovaries obtained from mice were washed twice with culture medium. Antagonists or agonists to be tested were dissolved in suitable solvents and added to the medium. As a control medium comprising solvent without the antagonist or agonist was used. One of the ovaries was cultured in a control medium and another was cultured with the antagonist or agonist. The tested antagonists or agonists and their concentrations are outlined in table 2.
Ovaries were incubated with antagonist at 37° C. and 5% CO2 for 24 and 96 hours, respectively (see table 3).
Cultures ovaries were fixed, embedded in paraffin and sliced microscopy. The sectioned ovaries were stained with hematoxylin and eosin (H&E) to visualize the morphology of the ovary by microscopy.
The number of primordial, primary and secondary follicles was determined, and it was determined whether the antagonist or agonist was capable of regulating folliculogenesis.
C57BL/6j×CBA F1 hybrid mice (Janvier Labs, France) were housed and bred in the animal facilities at Department of Biomedicine, Aarhus University. Animals were housed in a 12:12 h controlled light-dark environment and were provided with food and water ad libitum. 7-day-old female pups were used for the study.
Pups were sacrificed and ovaries were excised. Using a stereomicroscope MZ75 (Leica Microsystems, Germany), excess tissue was removed. During the dissection, ovaries were kept at 37° C. in culture medium: aMEM (Thermo Fisher) supplemented with 10% FBS (Thermo Fisher), 100 mIU/mL of FSH (Sigma-Aldrich), 100 IU/mL penicillin (Thermo Fisher), 100 μg/mL streptomycin (Thermo Fisher) and 1% Insulin-Transferrin-Selenium (Thermo Fisher). Isolated ovaries were transferred into well inserts (PET membrane ThinCert, 0.4 μm-pore size; Greiner bio-one) in 24-well plates (Tissue culture treated, cell culture plates; Costar). 200-300 μL of culture medium was added to the well below the insert and up to two ovaries were placed on the membrane of each insert. The culture medium was supplemented with different concentrations of the tested compounds; bpV(HOpic) (Sigma-Aldrich), Temsirolimus (Sigma-Aldrich), Ketotifen (Sigma-Aldrich), 3PO (Sigma-Aldrich), Dorsomorphin (Sigma-Aldrich), AICAR (Sigma-Aldrich), NCG (Sigma-Aldrich), and Dyphylline (Cayman Chemical). Up to six wells in the 24-well plate were used for inserts. Sterile dH2O was added to the rest of the wells to ensure humidity and reduce evaporation. The ovaries were cultured at 37° C., 5% CO2 for four days. 150 μL of medium was replaced every other day with fresh culture medium.
Ovaries kept in organ culture for four days were fixed for 24 hours in 4% paraformaldehyde solution at 4° C. After fixation, ovaries were dehydrated in ethanol series using 70%, 96% and 99.9% ethanol. Xylene was used as clearing agent before the ovaries were infiltrated in paraffin wax. 5 μm-sections of samples in paraffin were cut using a microtome (Cut 6062, SLEE medical, Germany). Paraffin sections were mounted on glass slides, paraffin was melted at 60° C., and the samples were stained with hematoxylin and eosin (using standard protocols).
The samples were deparaffinized by incubating in xylene for 2×15 min. and subsequently rehydrated in series of ethanol; 3×2 min. in 99.9% ethanol, 2 min. in 96% ethanol, and 2 min. in 70% ethanol. The samples were then rinsed in dH2O, stained in hematoxylin for 40 sec., rinsed in dH2O for 5 min., and stained in eosin for 46 sec. The samples were dehydrated in ethanol: 2×2 min. in 96% ethanol, 2×2 min in 99.9% ethanol, and finally cleared up in xylene for at least 30 min before mounting the samples using Eukitt mounting medium (Sigma-Aldrich) and cover glass.
The number of follicles at each developmental stage was counted using an inverted research microscope (DM14000B, Leica Microsystems, Germany). The follicles of every 3rd to 4th section of each ovary were counted and the distribution of follicles in the different stages in percentage was determined.

The mark [1] stands for this setting: Table 1, effect with a figure cited.
Setting [2] is: Table 2, effect with a figure cited.
Setting [3] is: 30 μM 3PO, ovaries cultured four days, only healthy follicles counted.

Entries after “also recorded” stand apart in the source; their conditions may differ.

Consider `CC1(O)CC(c2nc(-c3ccc4ccc(-c5ccccc5)nc4c3)c3c(N)nccn23)C1` (stereo not drawn) [Linsitinib, 3-[8-amino-1-(2-phenylquinolin-7-yl)imidazo[1,5-a]pyrazin-3-yl]-1-methylcyclobutan-1-ol], for which the Effect result was “promotes” (Table 1, marked (ongoing)) and “promotes” (Table 2, marked (ongoing)).
Consider `CCOc1cc2ncc(C#N)c(Nc3ccc(OCc4ccccn4)c(Cl)c3)c2cc1NC(=O)/C=C/CN(C)C` [AVE1642, (E)-N-[4-[3-chloro-4-(pyridin-2-ylmethoxy)anilino]-3-cyano-7-ethoxyquinolin-6-yl]-4-(dimethylamino)but-2-enamide], for which the Effect entry runs as follows: (Table 1, marked (ongoing)) “promotes”; (Table 2, marked (ongoing)) “promotes”.
In the case of `NC(=O)c1ncn([C@@H]2O[C@H](CO)[C@@H](O)[C@H]2O)c1N` [AICAR, 5-aminoimidazole-4-carboxamide-1β-D-ribofuranoside], the “effect on primordial-to-primary follicle transition / primordial follicle activation” value is “suppress the primordial-to-primary follicle transition”. For the same compound, the “follicles (stage not given; activation of primordial follicles inhibited)” value (0.5 mM AICAR (n=1), data not shown) came out at 83.83±3.06%. Moreover, for the setting “1 mM AICAR, four days”, the primary follicles is recorded as 10.82±4.98%, the primordial follicles was 86.02±5.84% and the secondary follicles is listed as 3.0±3.09%. In addition, the “health of growing follicles in treated ovaries” value (AICAR 0.1-1 mM, four days) is “growing follicles within the ovary tended to appear unhealthy; also recorded: too harsh for the growing follicles”. In addition, the Effect entry under setting [1] was “promotes”. Also, the Effect result under setting [2] was “promotes”.
`CCN1[C@@H](C(=O)NC23CCC(C(=O)O)(CC2)CC3)[C@H](c2cccc(Cl)c2F)[C@]2(C(=O)Nc3cc(Cl)ccc32)C12CCCCC2` [APG-115]: the Effect result is recorded as “promotes” (Table 1, marked (ongoing)) and “promotes” (Table 2, marked (ongoing)).
Consider `CN(C)C(=N)N=C(N)N` [Metformin, N,N-Dimethylimiddicarbonimiddiamid], for which the Effect result is “promotes” (Table 1, marked (ongoing)) and “promotes” (Table 2, marked (ongoing)).
Turning to `O=C(C=Cc1cccnc1)c1ccncc1` [3PO, 3-(3-pyridinyl)-1-(4-pyridinyl)-2-propen-1-one], the “effect on primordial-to-primary follicle transition / primordial follicle activation” value is on record as “promote primordial-to-primary transition”. Also, under setting [3], the primary follicles amounted to 26.60±11.24%, the primordial follicles came to 63.11±8.83% and the secondary follicles turned out to be 11.58±9.07%. Besides, the “health of follicles in treated ovaries” value (3PO treated ovaries) is on record as “several of the follicles seemed atretic”. Under setting [1], the Effect entry is given as “promotes”. Moreover, the Effect entry under setting [2] is listed as “promotes”.
Regarding `c1ccc2c(CCNc3ccc(Nc4ccncc4)cc3)c[nH]c2c1` [Serdemetan, 1-N-[2-(1H-indol-3-yl)ethyl]-4-N-pyridin-4-ylbenzene-1,4-diamine], the Effect result (Table 1, marked (ongoing)) was “promotes” and the Effect result (Table 2, marked (ongoing)) was “promotes”.
In the case of `CS(=O)(=O)N1CCN(Cc2cc3nc(-c4cccc5[nH]ncc45)nc(N4CCOCC4)c3s2)CC1` [Pictilisib, 2-(1H-indazol-4-yl)-6-(4-methanesulfonylpiperazin-1-ylmethyl)-4-morpholin-4-ylthieno(3,2-d)pyrimidine], the Effect entry by setting is: (Table 1, marked (ongoing)) “promotes”; (Table 2, marked (ongoing)) “promotes”.
With `COc1cc2c(cc1OC(C)C)[C@H](c1ccc(Cl)cc1)N(c1ccc(N(C)CC3CCC(N4CCN(C)C(=O)C4)CC3)cc1)C(=O)C2` (stereo partly drawn) [CGM097, (1S)-1-(4-chlorophenyl)-6-methoxy-2-[4-[methyl-[[4-(4-methyl-3-oxopiperazin-1-yl)cyclohexyl]methyl]amino]phenyl]-7-propan-2-yloxy-1,4-dihydroisoquinolin-3-one], the Effect entry is, setting by setting: (Table 1, marked (ongoing)) “promotes”; (Table 2, marked (ongoing)) “promotes”.
Regarding `Nc1cc(-c2ccncc2)c[nH]c1=O` [Amrinone, 3-amino-5-pyridin-4-yl-1H-pyridin-2-one], the Effect entry by setting is: (Table 1, marked (ongoing)) “promotes”; (Table 2, marked (ongoing)) “promotes”.
For the compound `O=C1CCc2cc(OCCCCc3nnnn3C3CCCCC3)ccc2N1` [Cilostazol, 6-[4-(1-cyclohexyltetrazol-5-yl)butoxy]-3,4-dihydro-1H-quinolin-2-one], the Effect result is “promotes” (Table 1, marked (ongoing)) and “promotes” (Table 2, marked (ongoing)).
With `COc1cc(N2CCC(N3CCN(C)CC3)CC2)ccc1Nc1nc2c(c(Nc3ccccc3S(=O)(=O)NC(C)C)n1)CCN2` [CT-707], the Effect entry runs as follows: (Table 1, marked (ongoing)) “promotes”; (Table 2, marked (ongoing)) “promotes”.
With “PDGF-AA: peptide, expressed in E coli, SEQ ID NO: 1, binds and activates PDGFRA”, the Effect result is, setting by setting: (Table 1, marked (ongoing)) “promotes”; (Table 2, marked (ongoing)) “promotes”.
For `Nc1cc(C(F)(F)F)c(-c2cc(N3CCOCC3)nc(N3CCOCC3)n2)cn1` [Buparlisib, 5-(2,6-dimorpholinopyrimidin-4-yl)-4-(trifluoromethyl)pyridin-2-amine], the Effect entry reads like this: (Table 1, marked (ongoing)) “promotes”; (Table 2, marked (ongoing)) “promotes”.
For `O=C1C=C/C(=C(/[O-])O)N=C1.[K+].[O-][O-].[O-][O-].[O]=[V]` [bpV(HOpic)], the “effect on primordial-to-primary follicle transition / primordial follicle activation” value is listed as “increase the rate of primordial-to-primary transition”.
In the case of `COc1ccc(Cl)c(Nc2nc3ccccc3nc2NS(=O)(=O)c2cccc(NC(=O)C(C)(C)N)c2)c1` [XI147, 2-amino-N-[3-({3-[(2-chloro-5-methoxyphenyl)amino]quinoxalin-2-yl}sulfamoyl)phenyl]-2-m], the Effect result (Table 1, marked (ongoing)) is recorded as “promotes” and the Effect result (Table 2, marked (ongoing)) is on record as “promotes”.
`c1cc(-c2cnn3cc(-c4ccc(OCCN5CCCCC5)cc4)cnc23)ccn1` [Dorsomorphin]: under “5 μM dorsomorphin, four days”, the primary follicles came out at 12.78±2.23% and the secondary follicles is 15.87±3.06%. Moreover, the primordial follicles (5 μM dorsomorphin, four days, own control contaminated, compared with control of another experiment) amounted to 71.32±5.50%.
For `NC(=O)N[C@@H](CCC(=O)O)C(=O)O` [NCG, (2S)-2-(carbamoylamino)pentanedioic acid], for the setting “10, 20 and 30 μM NCG, 96 hours”, the “effect on follicle distribution” value is on record as “has the potential to activate primordial follicle distribution”. In addition, the Effect result runs as follows: under setting [1], “promotesfollicle”; under setting [2], “promotesfollicle”.
Consider `CC1(C)CCC2(CC1)N[C@@H](C(=O)N[C@@H]1CC[C@@H](C(N)=O)OC1)[C@H](c1ccnc(Cl)c1F)[C@]21C(=O)Nc2cc(Cl)ccc21.Cc1ccc(S(=O)(=O)O)cc1` [DS-3032b, L-Erythro-hexonamide, 2,6-anhydro-5-((((3′R,4'S,5′R)-6″-chloro-4′-(2-chloro-3-fluoro-4-pyridinyl)-1″,2″-dihydro-4,4-dimethyl-2″-oxodispiro(cyclohexane-1,2′-pyrrolidine-3′,3″-(3H)indol)-5′-yl)carbonyl)amino)-3,4,5-trideoxy-, 4-methylbenzenesulfon], for which the Effect result is on record as “promotes” (Table 1, marked (ongoing)) and “promotes” (Table 2, marked (ongoing)).
As to `OCCN(CCO)c1nc(N2CCCCC2)c2nc(N(CCO)CCO)nc(N3CCCCC3)c2n1` [Dipyridamole, 2-[[2-[bis(2-hydroxyethyl)amino]-4,8-di(piperidin-1-yl)pyrimido[5,4-d]pyrimidin-6-yl]-(2-hydroxyethyl)amino]ethanol], the Effect result is reported as “promotes” (Table 1, marked (ongoing)) and “promotes” (Table 2, marked (ongoing)).
On to `C=CC(=O)N1CCC(Oc2cc3c(Nc4ccc(Cl)c(Cl)c4F)ncnc3cc2OC)CC1` [Poziotinib, 1-[4-[4-(3,4-dichloro-2-fluoroanilino)-7-methoxyquinazolin-6-yl]oxypiperidin-1-yl]prop-2-en-1-one], for which the Effect entry runs as follows: (Table 1, marked (ongoing)) “promotes”; (Table 2, marked (ongoing)) “promotes”.

Source of the values: US11666561B2, “Compounds for use in regulating follicle maturation” (AARHUS UNIVERSITET, priority 2017, dated 2023).
